Measurements from patent US11746111B2, “Siderophore conjugated pyrazolidinones, and analogues thereof” (YALE UNIVERSITY, priority 2018, dated 2023).
≈ marks a conversion by molar mass, not a printed value. Read-outs that look alike come from different tables or passages of the source. Values belong to the compound of their own block, whether it stands above or below them.

Experiments:
Type in all cases: cell-based
[1] = tested on: K. pneumoniae clinical isolates; assay: Microdilution broth MIC, K. pneumoniae clinical isolates (Table 1); conditions: Klebsiella pneumoniae
Method: (§1) Microdilution Broth Minimum Inhibitory Concentrations (MICs)
(§2) MICs were performed in triplicate in cation adjusted Mueller-Hinton (MH) broth 30 according to CLSI guidelines. Firstly, overnight cultures of E. coli and K. pneumoniae clinical isolates were inoculated into 5 ml MH broth to OD600=0.1 and grown to OD600=0.224 (approximately 1-2×10^8 CFU/ml). These cultures were diluted (3 μl+4997 μl MH) and 100 μl inoculated into each well of a 96-well plate containing 100 μl of serial dilutions of compound 26 (YU253434), ampicillin, ceftazidime, or imipenem. The plates were placed in a 37° C. incubator for 18-20 hours and wells checked for growth.

[2] = tested on: E. coli clinical isolates; assay: Microdilution broth MIC, E. coli clinical isolates (Table 1); conditions: Escherichia coli
Method: as §1, §2

E. coli = assay: MIC versus E. coli strains incl. Class B metallo beta lactamases (Table 2); conditions: Escherichia coli
Excerpt: (§3) Tables 2 and 3 show MIC values of compound 26 (YU253434) and 42 YU253911 versus E. coli and P. Aeruginosa strains containing Class B metallo beta lactamases VIM and NDM compared with Meropenem as a standard.

Pseudomonas aeruginosa = assay: MIC versus Pseudomonas aeruginosa strains incl. Class B metallo beta lactamases (Table 3)
Excerpt: as §3

[3] = K. pneumoniae KB390 Quale, TEM-30, TEM-1, KPC-2, SHV-12, read-out: MIC
[4] = K. pneumoniae LC56, CTX-M-1 grp(15), read-out: MIC
[5] = K. pneumoniae LC102, SHV-1 (WT + 238S), read-out: MIC
[6] = K. pneumoniae Rush23, CTX-M-9 group, read-out: MIC
[7] = K. pneumoniae VA-184, KPC-2, SHV-11, SHV-12, read-out: MIC
[8] = K. pneumoniae VA-267, KPC-3, TEM-1, SHV-11, SHV-12, read-out: MIC
[9] = K. pneumoniae VA-357, KPC-2, SHV-11, read-out: MIC
[10] = K. pneumoniae VA-368, KPC-2, TEM-1, SHV-5, SHV-68, read-out: MIC
[11] = K. pneumoniae VA-384, KPC-2, TEM-1, SHV-11, SHV-12, SHV-14, read-out: MIC
[12] = K. pneumoniae VA-391, KPC-3, TEM-1, SHV-11, SHV-12, SHV-77, read-out: MIC
[13] = K. pneumoniae VA-398, KPC-3, TEM-1, SHV-11, SHV-12, SHV-27, read-out: MIC
[14] = K. pneumoniae VA-400, KPC-2, TEM-1, SHV-11, SHV-12, read-out: MIC
[15] = K. pneumoniae VA-406, KPC-2, TEM-1, SHV-11, SHV-12, read-out: MIC
[16] = K. pneumoniae VA-410, KPC-3, TEM-1, SHV-11, read-out: MIC
[17] = E. coli LC15, CTX-M-9 group, CTX-M-1 grp(15)
[18] = E. coli LC38, CTX-M-1 grp(15), PB AmpC (ACT/MIR)
[19] = E. coli LC41, TEM (238S), PB AmpC (ACT/MIR), CTX-M-1 grp(15)
[20] = E. coli LC77, TEM, KPC, read-out: MIC
[21] = E. coli LC81, SHV (238S + 240K), read-out: MIC
[22] = E. coli LC98, CMY (group II), read-out: MIC
[23] = E. coli LC109, CTX-M-9 group, CMY (group II)
[24] = E. coli LC111, TEM (164S), read-out: MIC
[25] = E. coli LC136, SHV (WT + 238S), read-out: MIC

SMILES: CC1(C)S[C@@H]2[C@H](NC(=O)[C@H](N)c3ccccc3)C(=O)N2[C@H]1C(=O)O [Ampicillin]
MIC ([1]; K. pneumoniae 7000063, β-lactamase SHV-18): 1020 µg/mL (≈ 2930 µM)
MIC [1, 3]: > 2050 µg/mL
MIC ([1]; K. pneumoniae LC40, CTX-M-1 grp(15), TEM (164S)): 512 µg/mL (≈ 1470 µM)
MIC [1, 4]: > 2050 µg/mL
MIC [1, 5]: > 2050 µg/mL
MIC ([1]; K. pneumoniae LC121, SHV-1 (WT + 238S + 240K)): 1020 µg/mL
MIC [1, 6]: > 2050 µg/mL
MIC [1, 7]: > 2050 µg/mL
MIC [1, 8]: > 2050 µg/mL
MIC [1, 9]: > 2050 µg/mL
MIC [1, 10]: > 2050 µg/mL
MIC [1, 11]: > 2050 µg/mL
MIC [1, 12]: > 2050 µg/mL
MIC [1, 13]: > 2050 µg/mL
MIC [1, 14]: > 2050 µg/mL
MIC [1, 15]: > 2050 µg/mL
MIC [1, 16]: > 2050 µg/mL
MIC ([2]; BAA202, E. coli BAA-202, SHV-1): > 2050 µg/mL
MIC ([2]; E. coli 35218, TEM-1, read-out: MIC): 256 µg/mL (≈ 733 µM)
MIC ([2]; E. coli LC4, TEM, SHV-12): > 2050 µg/mL
MIC ([2]; E. coli LC12, CTX-M-1 grp(15), read-out: MIC): 2050 µg/mL (≈ 5860 µM)
MIC [2, 17]: 1020 µg/mL (≈ 2930 µM)
MIC ([2]; E. coli LC33, CTX-M-9 group): 512 µg/mL (≈ 1470 µM)
MIC [2, 18]: 512 µg/mL (≈ 1470 µM)
MIC [2, 19]: 512 µg/mL (≈ 1470 µM)
MIC [2, 20]: 2050 µg/mL (≈ 5860 µM)
MIC [2, 21]: 2050 µg/mL
MIC ([2]; E. coli LC91, CTX-M-1 grp(15), CMY (group II), read-out: MIC): 2050 µg/mL (≈ 5860 µM)
MIC [2, 22]: 2050 µg/mL (≈ 5860 µM)
MIC [2, 23]: 1020 µg/mL (≈ 2930 µM)
MIC [2, 24]: 1020 µg/mL (≈ 2930 µM)
MIC [2, 25]: 512 µg/mL
MIC ([2]; E. coli Rush24, CMY (group II)): > 2050 µg/mL

SMILES: C[C@@H](O)[C@H]1C(=O)N2C(C(=O)O)=C(SCCN=CN)C[C@H]12 [Imipenem]
MIC ([1]; K. pneumoniae 7000063, β-lactamase SHV-18, read-out: MIC): < 0.125 µg/mL
MIC [1, 3]: 4 µg/mL (≈ 13.4 µM)
MIC ([1]; K. pneumoniae LC40, CTX-M-1 grp(15), TEM (164S), read-out: MIC): 0.25 µg/mL (≈ 0.835 µM)
MIC [1, 4]: 0.5 µg/mL (≈ 1.67 µM)
MIC [1, 5]: < 0.125 µg/mL
MIC ([1]; K. pneumoniae LC121, SHV-1 (WT + 238S + 240K), read-out: MIC): < 0.125 µg/mL
MIC [1, 6]: < 0.125 µg/mL
MIC [1, 7]: 8 µg/mL (≈ 26.7 µM)
MIC [1, 8]: 4 µg/mL (≈ 13.4 µM)
MIC [1, 9]: 8 µg/mL (≈ 26.7 µM)
MIC [1, 10]: 1 µg/mL (≈ 3.34 µM)
MIC [1, 11]: 32 µg/mL (≈ 107 µM)
MIC [1, 12]: 4 µg/mL (≈ 13.4 µM)
MIC [1, 13]: 1 µg/mL (≈ 3.34 µM)
MIC [1, 14]: 4 µg/mL (≈ 13.4 µM)
MIC [1, 15]: > 128 µg/mL
MIC [1, 16]: 2 µg/mL (≈ 6.68 µM)
MIC ([2]; BAA202, E. coli BAA-202, SHV-1, read-out: MIC): 0.25 µg/mL (≈ 0.835 µM)
MIC ([2]; E. coli 35218, TEM-1): < 0.125 µg/mL
MIC ([2]; E. coli LC4, TEM, SHV-12): < 0.125 µg/mL
MIC ([2]; E. coli LC12, CTX-M-1 grp(15)): 128 µg/mL (≈ 428 µM)
MIC [2, 17]: < 0.125 µg/mL
MIC ([2]; E. coli LC33, CTX-M-9 group): < 0.125 µg/mL
MIC [2, 18]: < 0.125 µg/mL
MIC [2, 19]: < 0.125 µg/mL
MIC [2, 20]: 2 µg/mL (≈ 6.68 µM)
MIC [2, 21]: < 0.125 µg/mL
MIC ([2]; E. coli LC91, CTX-M-1 grp(15), CMY (group II)): < 0.125 µg/mL
MIC [2, 22]: < 0.125 µg/mL
MIC [2, 23]: < 0.125 µg/mL
MIC [2, 24]: < 0.125 µg/mL
MIC [2, 25]: < 0.125 µg/mL
MIC ([2]; E. coli Rush24, CMY (group II), read-out: MIC): 0.25 µg/mL (≈ 0.835 µM)

MIC (E. coli; ATCC25822, E. coli isolate ATCC 25822, CLSI costrol): ≤ 0.125 µg/mL
MIC (E. coli; E. coli isolate AA-118, NDM): > 64 µg/mL
MIC (E. coli; E. coli isolate AA-119, NDM): 64 µg/mL (≈ 167 µM)
MIC (E. coli; E. coli isolate AA-128, NDM): 64 µg/mL (≈ 167 µM)
MIC (E. coli; E. coli isolate AK-114, KPC-3, TEM-18): 4 µg/mL (≈ 10.4 µM)
MIC (E. coli; E. coli isolate AR-1, KPC-3): 4 µg/mL (≈ 10.4 µM)
MIC (E. coli; E. coli isolate AR-11, CTX-M-15, OxA-1): ≤ 0.125 µg/mL
MIC (E. coli; E. coli isolate AR-137, NDM-6): > 64 µg/mL
MIC (E. coli; E. coli isolate AR-145, NDM): > 64 µg/mL
MIC (E. coli; E. coli isolate J4244, MN): ≤ 0.125 µg/mL
MIC (E. coli; E. coli isolate J4245, Michigan): ≤ 0.125 µg/mL
MIC (Pseudomonas aeruginosa; ATCC27853, P. aeruginosa isolate ATCC 27853, CLSI control): 1 µg/mL (≈ 2.61 µM)
MIC (Pseudomonas aeruginosa; P. aeruginosa isolate AR-229, OXA-50): 64 µg/mL (≈ 167 µM)
MIC (Pseudomonas aeruginosa; P. aeruginosa isolate AR-230, VIM-2): > 64 µg/mL
MIC (Pseudomonas aeruginosa; P. aeruginosa isolate AR-231, KPC-5): > 64 µg/mL
MIC (Pseudomonas aeruginosa; P. aeruginosa isolate AR-232, OXA-50): 8 µg/mL (≈ 20.9 µM)
MIC (Pseudomonas aeruginosa; P. aeruginosa isolate AR-245, VIM): 32 µg/mL (≈ 83.4 µM)
MIC (Pseudomonas aeruginosa; P. aeruginosa isolate AR-249, VIM): > 64 µg/mL
MIC (Pseudomonas aeruginosa; P. aeruginosa isolate AR-252): 64 µg/mL (≈ 167 µM)
MIC (Pseudomonas aeruginosa; P. aeruginosa isolate AR-254, VIM): > 64 µg/mL
MIC (Pseudomonas aeruginosa; P. aeruginosa isolate AR-270, OXA-50): 4 µg/mL (≈ 10.4 µM)
MIC (Pseudomonas aeruginosa; P. aeruginosa isolate J4242, UNC-D): 16 µg/mL (≈ 41.7 µM)
SMILES: C[C@@H](O)[C@H]1C(=O)N2C(C(=O)O)=C(S[C@@H]3CN[C@H](C(=O)N(C)C)C3)[C@H](C)[C@H]12 [Meropenem]
